Results from patent US9868973B2, “Method for optimizing post-translational modifications on recombinant proteins” (STC Biologics, Inc., priority 2014, dated 2018).

Tested on: fucosyl transferase
Assay: Modulation of glycosylation PTMs of trastuzumab biosimilar in CHO cells by FTI (Methods 1 and 2), 2AB glycan analysis
Assay type: cell-based, Chinese Hamster
Description: To obtain a recipe for production of a biosimilar with a similar glycosylation pattern to the original Herceptin®, CHO cells engineered to express the recombinant protein with an amino acid sequence identical to trastuzumab were first grown in the growth media without any inhibitors to establish a Baseline. The glycan species were analyzed using 2AB glycan method. It was observed that Peak 2 (G0) and Peak 6 (G1), and Peak 7 (mannose-5 and G1′) PTMs were lower for the biosimilar than their target PTMs.
G0, G1 and G1′ PTMs are non-fucosylated PTMs and are controlled by a host protein called fucosyl transferase and the mannose-5 PTM is controlled by the host protein known as α-mannosidase I. Fucosyl transferase can be inhibited by a variety of fucosyltransferase inhibitors shown in FIG. 2, α-mannosidase I can be inhibited by kifunensine.
Briefly to obtain trastuzumab with PTMs in the target range, cells were placed in growth media and treated with 2F-Peracetyl-Fucose (FTI) on day 7 at different concentrations (20 μM, 10 μM, 5 μM, 1 μM, 0.1 μM) to identify optimal drug concentration. On day 12 cells were harvested and the trastuzumab biosimilar isolated. […] FTI concentrations used to reach target PTMs are cell specific so it is expected that different concentrations of the FTI or other modulators would be required when a starting cell line is different from the one described in this example.
Different treatment methods such as Method 2 can be used to obtain target PTMs. For example, FTI can be added on a daily basis starting on day 5 (Table 3, Method 2) rather than on Day 7.

[1] = Method 1: 10 μM FTI on Day 7, trastuzumab biosimilar from CHO cells
[2] = Method 2: […]-[…] FTI every day starting at day 5, trastuzumab biosimilar from CHO cells

CC(=O)OC1O[C@@H](C)[C@@H](OC(C)=O)[C@@H](OC(C)=O)[C@@H]1F (stereo partly shown) [FTI, 2F-Peracetyl-Fucose]
G0, G1 and G1′ PTM levels versus target PTM range (10 μM FTI on day 7, harvest day 12): matched the target PTM range | G0, G1 and G1′ PTM levels versus target PTMs (20 μM FTI on day 7, harvest day 12): increase of G0, G1 and G1′ PTMs above that of target PTMs | PTMs versus target range (FTI at concentrations lower than 8 μM, day 7): outside the target range | Glycan Species Peak 1 [1]: 1.5% | Glycan Species Peak 2-G0 [1]: 4% | Glycan Species Peak 3 [1]: 1.5% | Glycan Species Peak 4-G0F [1]: 44% | Glycan Species Peak 5 [1]: 0.8% | Glycan Species Peak 6-G1 [1]: 1.8% | Glycan Species Peak 7- G1F/mannose 5 [1]: 1.2% | Glycan Species Peak 8- (1, 6)G1F [1]: 26% | Glycan Species Peak 9 (1, 3)G1F [1]: 11% | Glycan Species Peak 10 G2F [1]: 6.5% | Glycan Species Peak 11 [1]: 0.2% | Glycan Species Peak 12 [1]: 0.25% | Glycan Species Peak 13 [1]: 0.2% | Glycan Species Peak 14 [1]: 0.2% | Glycan Species Peak 15 [1]: 0.2% | Glycan Species Peak 4-G0F [2]: 44% | Glycan Species Peak 8- (1, 6)G1F [2]: 26% | Glycan Species Peak 9 (1, 3)G1F [2]: 11% | Glycan Species Peak 10 G2F [2]: 6.5%
